A word on the ED50: it is the dose at which the effect has come halfway, by size or by number of responders. The term half-life denotes how long it takes for the measured level to halve. Lower therefore signals rapid decline.

From ChEMBL document CHEMBL1130002, “Synthesis and biological evaluation of the 1,5-diarylpyrazole class of cyclooxygenase-2 inhibitors: identification of 4-[5-(4-methylphenyl)-3-(trifluoromethyl)-1H-pyrazol-1-yl]benze nesulfonamide (SC-58635, celecoxib)” (J Med Chem, 1997) come the findings set out here.

The species entered for series [1] is Rattus norvegicus. The series can be described thus: animal or person. Format: functional.
Description: Effective dose was determined in vivo in male lewis rats by rat adjuvant-induced arthritis assay
The species entered for series [2] is Rattus norvegicus. Nature of the series: animal or person. It is filed as functional. The source holds these as a separate data set.
The nature of series [3]: in vivo. Particulars: male, rat, po, 10 mg/kg.
Series [4] is filed under the species Rattus norvegicus. The series can be described thus: animal or person. Format: functional. The source holds these as a separate data set.
Description: Effective dose was determined in vivo in male Dawley rats by rat carrageenan-induced hyperalgesia assay
For series [5], the species on record is Rattus norvegicus. Nature of the series: animal or person. It is filed as functional. The source holds these as a separate data set.
A short description of series [6]: in vivo. Particulars: male, rat, po, 20 mg/kg.
Series [7] can be described thus: in vivo. The note with it: male, rat, po, 10 mg/kg. This is another data set of the same source.
Series [8] is described as follows: in vivo. Particulars: male, rat, iv, 10 mg/kg.
Series [9] is filed under the species Rattus norvegicus. Format: functional, Stomach.
Description: Concentration at which gastric damage will occur was determined in rat
The species named for series [10] is Rattus norvegicus. The series can be described thus: animal or person. The note with it: read-out: Inhibition.
Description: Percent inhibition was determined in vivo in male Dawley rats at a dose of 10 mg/kg by rat carrageenan-induced hyperalgesia assay

As to `NS(=O)(=O)c1ccc(-n2nc(C(F)(F)F)c(Cl)c2-c2ccc(Cl)cc2)cc1`, the values for the ED50 in the series listed under Rattus norvegicus [1] and in the series listed under Rattus norvegicus [2] were 0.006 mg/kg and 8.8 mg/kg, respectively.

Consider `Cc1ccc(-c2cc(C(F)F)nn2-c2ccc(S(N)(=O)=O)cc2)cc1`, for which the half-life in the series “in vivo [3]” is 3.3 h. In addition, the 50% effective dose (ED50) in the series listed under Rattus norvegicus [1] amounted to 0.35 mg/kg; in the series filed under Rattus norvegicus [2] it was 2.4 mg/kg; in the series listed under Rattus norvegicus [4] it was 37.3 mg/kg.

Turning to `COc1ccc(-c2cc(C(F)F)nn2-c2ccc(S(N)(=O)=O)cc2)cc1`, the figures for the ED50 in the series filed under Rattus norvegicus [1], in the series listed under Rattus norvegicus [2] and in the series listed under Rattus norvegicus [4] were 0.01 mg/kg, 13.7 mg/kg and 36 mg/kg, respectively.

Regarding `NS(=O)(=O)c1ccc(-n2nc(C(F)(F)F)cc2-c2ccc(Cl)cc2)cc1`, the median effective dose (ED50) was 6.6 mg/kg in the series filed under Rattus norvegicus [5], 0.07 mg/kg in the series listed under Rattus norvegicus [1] and 5.4 mg/kg in the series filed under Rattus norvegicus [2]. This molecule also showed a half-life in “in vivo [6]” of 117 h.

For `N#Cc1cc(-c2ccc(F)cc2)n(-c2ccc(S(N)(=O)=O)cc2)n1`, the ED50 stood at 0.51 mg/kg in the series filed under Rattus norvegicus [1], 7.5 mg/kg in the series listed under Rattus norvegicus [2] and 67.1 mg/kg in the series listed under Rattus norvegicus [4].

With `COc1ccc(-c2cc(C(F)(F)F)nn2-c2ccc(S(N)(=O)=O)cc2)cc1`, the half-life in “in vivo [7]” was 5.6 h.

Take `NS(=O)(=O)c1ccc(-n2nc(C(F)F)cc2-c2ccc(Cl)cc2)cc1`: the ED50 in the series filed under Rattus norvegicus [1] is 0.63 mg/kg; in the series filed under Rattus norvegicus [2] it was 13 mg/kg; in the series filed under Rattus norvegicus [4] it was 7.7 mg/kg. Also, the half-life in “in vivo [8]” was 4.5 h.

Take `Cc1ccc(-c2cc(C(F)(F)F)nn2-c2ccc(S(N)(=O)=O)cc2)cc1` [CELECOXIB]: the figures for the ED50 in the series listed under Rattus norvegicus [1], in the series filed under Rattus norvegicus [2] and in the series listed under Rattus norvegicus [4] were 0.37 mg/kg, 7.1 mg/kg and 34.5 mg/kg, respectively. The half-life in “in vivo [8]” was 3.5 h.

As for `COc1ccc(-c2cc(C(F)F)nn2-c2ccc(S(N)(=O)=O)cc2)cc1F` [DERACOXIB], the ED50 was 0.05 mg/kg in the series filed under Rattus norvegicus [1], 18.6 mg/kg in the series filed under Rattus norvegicus [2] and 33 mg/kg in the series listed under Rattus norvegicus [4]. This molecule had a half-life in “in vivo [8]” of 3.5 h.

As to `COc1ccc2c(c1)c(CC(=O)O)c(C)n2C(=O)c1ccc(Cl)cc1` [INDOMETHACIN], the ED50 in the series filed under Rattus norvegicus [1] is 0.11 mg/kg; in the series filed under Rattus norvegicus [2], 1.15 mg/kg; in the series filed under Rattus norvegicus [4], 4.1 mg/kg. In the series filed under Rattus norvegicus [9], the Ulceration came out at 7 mg/kg.

Take `COc1ccc2cc([C@H](C)C(=O)O)ccc2c1` [NAPROXEN]: the inhibition in vivo at 10 mg/kg in the series listed under Rattus norvegicus [10] was determined as 66%. This molecule also returned a Ulceration in the series filed under Rattus norvegicus [9] of 255 mg/kg. Besides, the ED50 in the series listed under Rattus norvegicus [2] was determined as 1.6 mg/kg.

Consider `CN1C(C(=O)Nc2ccccn2)=C(O)c2ccccc2S1(=O)=O` [PIROXICAM], for which, in the series filed under Rattus norvegicus [10], the inhibition in vivo at 10 mg/kg stood at 52%. The molecule further came in with a 50% effective dose (ED50) in the series listed under Rattus norvegicus [2] of 2.4 mg/kg.

In the case of `CS(=O)(=O)c1ccc(-n2nc(C(F)(F)F)cc2-c2ccc(F)cc2)cc1` [SC-58125], the ED50 in the series listed under Rattus norvegicus [1] came to 0.41 mg/kg; in the series listed under Rattus norvegicus [2], 10.5 mg/kg; in the series filed under Rattus norvegicus [4], 58.3 mg/kg. The molecule further gave a half-life in “in vivo [8]” of 221 h.
